From article PMC2963127, “Genotoxicity Revaluation of Three Commercial Nitroheterocyclic Drugs: Nifurtimox, Benznidazole, and Metronidazole” (Journal of Parasitology Research, 2009)
Where two headings read alike, the source gives them in different places. Marks after values point to notes of the source that are not given here.

Key:
[1] = tested on: Salmonella typhimurium TA98; details: for Revertant/plate: TA98 without S9; for Specific mutagenic activity (revertant increase/dose unit): linear regression
[2] = therapeutically treated patients; no reference given; cited from earlier work
[3] = tested on: immortalized lymphocytes (Epstein-Barr virus lymphoblastoid cell line); assay: Long-term exposure cytotoxicity assay (MTS); format: cell-based, human; details: 48 hours treatment
human lymphocytes = assay: Micronucleus (MN) assay, cytokinesis block; format: cell-based
Protocol: The MN assay was performed using blood samples from healthy, nonsmoking males, as provided by the AVIS (Italian Association of Voluntary Blood Donors). […] Cytochalasin-B was added 44 hours after the start of incubation at a final concentration of 6 μg/mL; at 48 hours, the lymphocytes were treated with the different drugs. […] Each treatment was tested with cells from two donors, performed in duplicate separate cultures (i.e., four cultures were set up for each treatment). After incubation, the lymphocytes were collected and resuspended in a mild hypotonic solution (0.075 M KCl) and then added with an ice-cold 5 : 3 acetic acid : methanol solution. After centrifugation (500 g, 10 min), the pellets were resuspended in cold (-20°C) methanol and maintained at -20°C (at least 24 hours). […] Scoring was done using an […] (Munich, Germany) light microscope at 1000X magnification. […] NDI data were analyzed by Student's t-test.

[4] = tested on: Salmonella typhimurium TA100; details: for Revertant/plate: TA100 without S9; for Specific mutagenic activity (revertant increase/dose unit): linear regression
human leukocytes [5] = assay: Modified comet assay with ENDOIII for oxidised bases; details: 37°C, 1 hour
Protocol: Oxidatively generated damage can be evaluated easily by comparing the DNA migration in enzyme-or buffer-treated samples. The comet assay, with the modification of an extra step after lysis in which DNA is digested with the repair enzyme, was performed according to Collins et al. […] ENDOIII was isolated from bacteria containing over-producing plasmids (Collin's Laboratory, Rowett Research Institute, Bucksburn, Aberdeen, UK). The enzyme-treated gels reveal alkali labile sites and strand breaks (ALS/SB) and oxidised bases (ALS/SB + OX). Assuming a linear dose response, subtraction of (ALS/SB) from (ALS/SB + OX) gives a measure of oxidised bases. The SPSS 11 statistical package was used to analyse statistical differences between samples. Statistical differences between controls and treated samples were first determined with the nonparametric Wilcoxon rank-sum test for each experiment. The mean values from the repeated experiments were used in a one-way analysis of variance. Analysis of variance was followed by single or multiple pairwise comparisons. Data were tested for normality and homogeneity of variance. When these criteria were met, the data were compared using Dunnett's version of the t-test.

human leukocytes [6] = format: cell-based; details: 1 hour treatment, measured immediately after exposure; NFX 0–348 μM, BNZ 0–348 μM, MTZ 0–585 μM

`O=[N+]([O-])c1ccc2c(c1)Cc1ccccc1-2` [2-NF, 2-nitrofluorene] gave a Revertant/plate ([1]; 15 μg/plate) of 169 ± 7.
In the case of `Cc1ncc([N+](=O)[O-])n1CCO` [MTZ, 2-(2-methyl-5-nitro-1H-imidazol-1-yl)ethanol], the “Plasmatic concentration in treated patients” value [2] is given as 8 to 13 µg/mL, the “Cytotoxic effect on cultured lymphocytes” value [3] is given as “did not show any significant effects” and the NDI (human lymphocytes; 24h, 5.9 µM) is given as 1.97± 0.07. For the same compound, the “NDI (%)” value (human lymphocytes; 24h, 5.9 µM) was 100± 4%, the NDI (human lymphocytes; 24h, 11.7 µM) was 1.97± 0.05 and the “NDI (%)” value (human lymphocytes; 24h, 11.7 µM) was 100± 3%. The NDI (human lymphocytes; 24h, 46.8 µM) was 2.01± 0.10, the “NDI (%)” value (human lymphocytes; 24h, 46.8 µM) was 102± 5% and the NDI (human lymphocytes; 24h, 93.6 µM) was 1.99± 0.04. The “NDI (%)” value (human lymphocytes; 24h, 93.6 µM) was 101± 2%, the NDI (human lymphocytes; 24h, 146.2 µM) was 1.97± 0.10 and the “NDI (%)” value (human lymphocytes; 24h, 146.2 µM) was 100± 5%. The NDI (human lymphocytes; 24h, 292.4 µM) was 2.01± 0.03, the “NDI (%)” value (human lymphocytes; 24h, 292.4 µM) was 102± 2% and the NDI (human lymphocytes; 24h, 584.8 µM) was 1.94± 0.06. The “NDI (%)” value (human lymphocytes; 24h, 584.8 µM) was 98± 3%, the NDI (human lymphocytes; 72h, 2.9 µM) was 1.74± 0.11 and the “NDI (%)” value (human lymphocytes; 72h, 2.9 µM) was 100± 6%. The NDI (human lymphocytes; 72h, 5.9 µM) was 1.75± 0.17, the “NDI (%)” value (human lymphocytes; 72h, 5.9 µM) was 101± 10% and the NDI (human lymphocytes; 72h, 11.7 µM) was 1.74± 0.10. For the same compound, the “NDI (%)” value (human lymphocytes; 72h, 11.7 µM) was 100± 6%, the NDI (human lymphocytes; 72h, 46.8 µM) was 1.81± 0.09 and the NDI (human lymphocytes; 72h, 93.6 µM) was 1.73± 0.08. The “NDI (%)” value (human lymphocytes; 72h, 93.6 µM) was 100± 5%, the NDI (human lymphocytes; 72h, 146.2 µM) was 1.84± 0.11 and the “NDI (%)” value (human lymphocytes; 72h, 146.2 µM) was 106±6%. The NDI (human lymphocytes; 72h, 292.4 µM) was 1.76± 0.07, the “NDI (%)” value (human lymphocytes; 72h, 292.4 µM) was 102± 4% and the NDI (human lymphocytes; 72h, 584.8 µM) was 1.74± 0.12. The “NDI (%)” value (human lymphocytes; 72h, 584.8 µM) was 100± 7% and the “Effect on nuclear division (NDI)” value (human lymphocytes; 72 hours treated lymphocytes) was “did not induce any alteration”.
Compound `CCN(CC)CCNc1ccc(CO)c2sc3ccccc3c(=O)c12` [HYC, hycantone] has a Revertant/plate ([4]; positive control 75 μg/plate) of 968 ± 103 and a Revertant/plate ([1]; positive control 75 μg/plate) of 870 ± 90.
With `CCOS(C)(=O)=O` [ethyl methane sulfonate] the “MN frequency in binucleated cells” value (human lymphocytes; male, human, 24 h, 1 μM) was 15.0 ± 2.8 ×10^−3 BN and the “MN frequency in binucleated cells” value (human lymphocytes; male, human, 24 h, 120 µg/ml) was 15.0± 2.8 x10-3 BN.
In the case of `O=C(Cn1ccnc1[N+](=O)[O-])NCc1ccccc1` [BNZ, N-benzyl-2-(2-nitroimidazol-1-yl)acetamide], the “Specific genotoxic activity, DNA migration/dose unit (II: comet assay modified with ENDOIII, DNA oxidative damage)” value (human leukocytes [5]) is reported as 0.9077 (r ^2 = 0.8351) μm/μM, the “Cytotoxic effect on cultured lymphocytes” value [3] is reported as “did not show any significant effects” and the “Lowest effective dose / concentration significantly increasing the revertant number” value ([4]; TA100) is reported as 5 µg/mL. It also gave a Revertants ([4]; TA100 +S9, 5 µg/plate) of 406± 13, a Revertants ([4]; TA100 +S9, 10 µg/plate) of 811± 55 and a Revertants ([4]; TA100 +S9, 20 µg/plate) of 1445± 85. The Revertants ([4]; TA100 +S9, 40 µg/plate) was 3117± 169, the Revertants ([4]; TA100 +S9, 80 µg/plate) was 4901± 166 and the Revertants ([4]; TA100 -S9, 5 µg/plate) was 498± 25. The Revertants ([4]; TA100 -S9, 10 µg/plate) was 943± 27, the Revertants ([4]; TA100 -S9, 20 µg/plate) was 1801± 67 and the Revertants ([4]; TA100 -S9, 40 µg/plate) was 3344± 104. The Revertants ([4]; TA100 -S9, 80 µg/plate) was 5287± 81, the “Specific mutagenic activity (revertant increase/dose unit)” value ([4]; TA100 with S9 mix) was 60.92 (0.98) and the “Specific mutagenic activity (revertant increase/dose unit)” value ([4]; TA100 without S9 mix) was 64.96 (0.98). The Cellular survival rate (human leukocytes [6]) was “did not appear to be affected”, the Revertants ([1]; TA98 +S9, 5 µg/plate) was 20± 2 and the Revertants ([1]; TA98 +S9, 10 µg/plate) was 18± 2. The Revertants ([1]; TA98 +S9, 20 µg/plate) was 22± 8, the Revertants ([1]; TA98 +S9, 40 µg/plate) was 24± 5 and the Revertants ([1]; TA98 +S9, 80 µg/plate) was 23± 4. The Revertants ([1]; TA98 +S9, 125 µg/plate) was 34± 2, the Revertants ([1]; TA98 +S9, 250 µg/plate) was 43± 9 and the Revertants ([1]; TA98 +S9, 500 µg/plate) was 44± 6. The Revertants ([1]; TA98 -S9, 5 µg/plate) was 10± 2, the Revertants ([1]; TA98 -S9, 10 µg/plate) was 16± 4 and the Revertants ([1]; TA98 -S9, 20 µg/plate) was 14± 6. It also gave a Revertants ([1]; TA98 -S9, 40 µg/plate) of 15± 1, a Revertants ([1]; TA98 -S9, 80 µg/plate) of 14± 2 and a Revertants ([1]; TA98 -S9, 125 µg/plate) of 26± 3. For the same compound, the Revertants ([1]; TA98 -S9, 250 µg/plate) was 39± 3, the Revertants ([1]; TA98 -S9, 500 µg/plate) was 45± 5 and the “Specific mutagenic activity (revertant increase/dose unit)” value ([1]; TA98 with S9 mix) was 0.10 (0.93). For the same compound, the “Specific mutagenic activity (revertant increase/dose unit)” value ([1]; TA98 without S9 mix) was 0.07 (0.88), the “Effect on MN frequency” value (human lymphocytes; 24-hours treated lymphocytes) was “did not alter MN frequency” and the MN (human lymphocytes; 24h, 3.8 µM) was 4.0± 0.5 x10-3 BN. For the same compound, the NDI (human lymphocytes; 24h, 3.8 µM) was 1.97± 0.11, the “NDI (%)” value (human lymphocytes; 24h, 3.8 µM) was 94± 5% and the MN (human lymphocytes; 24h, 7.7 µM) was 3.5± 1.0 x10-3 BN. The NDI (human lymphocytes; 24h, 7.7 µM) was 1.97± 0.07, the “NDI (%)” value (human lymphocytes; 24h, 7.7 µM) was 94± 3% and the MN (human lymphocytes; 24h, 15.4 µM) was 2.5± 0.5 x10-3 BN. For the same compound, the NDI (human lymphocytes; 24h, 15.4 µM) was 2.00± 0.06, the “NDI (%)” value (human lymphocytes; 24h, 15.4 µM) was 95± 3% and the MN (human lymphocytes; 24h, 30.7 µM) was 4.5± 1.0 x10-3 BN. For the same compound, the “NDI (%)” value (human lymphocytes; 24h, 30.7 µM) was 97± 2%, the MN (human lymphocytes; 24h, 61.5 µM) was 3.5± 0.5 x10-3 BN and the NDI (human lymphocytes; 24h, 61.5 µM) was 1.99± 0.07. For the same compound, the “NDI (%)” value (human lymphocytes; 24h, 61.5 µM) was 95± 3%, the MN (human lymphocytes; 24h, 96.1 µM) was 3.0± 0.5 x10-3 BN and the NDI (human lymphocytes; 24h, 96.1 µM) was 2.01± 0.03. The “NDI (%)” value (human lymphocytes; 24h, 96.1 µM) was 96± 1%, the MN (human lymphocytes; 24h, 192.1 µM) was 5.0± 1.0 x10-3 BN and the NDI (human lymphocytes; 24h, 192.1 µM) was 2.07± 0.07. For the same compound, the “NDI (%)” value (human lymphocytes; 24h, 192.1 µM) was 99± 3%, the MN (human lymphocytes; 24h, 384.2 µM) was 3.5± 0.5 x10-3 BN and the “NDI (%)” value (human lymphocytes; 24h, 384.2 µM) was 97± 5%. For the same compound, the “Effect on MN frequency” value (human lymphocytes; 72 hours treated lymphocytes) was “increase of MN frequency”, the “Effect on nuclear division (NDI)” value (human lymphocytes; 72 hours treated lymphocytes) was “without some decrease of nuclear division” and the MN (human lymphocytes; 72 hours, 3.8 μM) was 3.5 ± 1.0 ×10^−3 BN. For the same compound, the NDI (human lymphocytes; 72 hours, 3.8 μM) was 1.93 ± 0.11, the “NDI (%)” value (human lymphocytes; 72 hours, 3.8 μM) was 100 ± 6% and the MN (human lymphocytes; 72 hours, 7.7 μM) was 4.0 ± 1.0 ×10^−3 BN. For the same compound, the NDI (human lymphocytes; 72 hours, 7.7 μM) was 2.00 ± 0.07, the “NDI (%)” value (human lymphocytes; 72 hours, 7.7 μM) was 104 ± 4% and the MN (human lymphocytes; 72 hours, 15.4 μM) was 4.0 ± 1.5 ×10^−3 BN. For the same compound, the NDI (human lymphocytes; 72 hours, 15.4 μM) was 1.98 ± 0.06, the “NDI (%)” value (human lymphocytes; 72 hours, 15.4 μM) was 102 ± 3% and the MN (human lymphocytes; 72 hours, 30.7 μM) was 3.5 ± 1.0 ×10^−3 BN. The NDI (human lymphocytes; 72 hours, 30.7 μM) was 1.99 ± 0.05, the “NDI (%)” value (human lymphocytes; 72 hours, 30.7 μM) was 103 ± 3% and the MN (human lymphocytes; 72 hours, 61.5 μM) was 3.0 ± 0.5 ×10^−3 BN. The NDI (human lymphocytes; 72 hours, 61.5 μM) was 2.06 ± 0.07, the “NDI (%)” value (human lymphocytes; 72 hours, 61.5 μM) was 107 ± 4% and the MN (human lymphocytes; 72 hours, 96.1 μM) was 9.0 ± 0.5 ×10^−3 BN. For the same compound, the NDI (human lymphocytes; 72 hours, 96.1 μM) was 2.05 ± 0.03, the “NDI (%)” value (human lymphocytes; 72 hours, 96.1 μM) was 106 ± 2% and the MN (human lymphocytes; 72 hours, 192.1 μM) was 13.0 ± 1.0^b ×10^−3 BN. For the same compound, the NDI (human lymphocytes; 72 hours, 192.1 μM) was 2.00 ± 0.07, the “NDI (%)” value (human lymphocytes; 72 hours, 192.1 μM) was 104 ± 4% and the MN (human lymphocytes; 72 hours, 384.2 μM) was 16.5 ± 0.5^b ×10^−3 BN. The NDI (human lymphocytes; 72 hours, 384.2 μM) was 1.93 ± 0.10 and the “NDI (%)” value (human lymphocytes; 72 hours, 384.2 μM) was 100 ± 6%.
In the case of `NC(=O)C(=Cc1ccc([N+](=O)[O-])o1)c1ccco1` [FYFA, 2-(2-furyl)-3-(5-nitro-2-furyl)acrylamide], the Revertant/plate ([4]; 20 ng/plate) is reported as 1133 ± 70 and the Revertant/plate ([1]; 20 ng/plate) is reported as 189 ± 16.
In the case of bleomycin, the “MN frequency in binucleated cells” value (human lymphocytes; positive control, 6µg/ml) is reported as 26.0± 4.0 x10-3 BN.
